Measured values: patent publication US11059815B2, “Synthesis of small molecule histone deacetylase 6 degraders, compounds formed thereby, and pharmaceutical compositions containing them” (Wisconsin Alumni Research Foundation, priority 2018, dated 2021)
“Also recorded” adds a separate entry of the source.

Molecular target: T1, HDAC6 (Homo sapiens, UniProt Q9UBN7)
T1 construct: endogenous in cells; host or cells: MM1S (ATCC CRL-2974)
T1 sequence (Q9UBN7 1-1215): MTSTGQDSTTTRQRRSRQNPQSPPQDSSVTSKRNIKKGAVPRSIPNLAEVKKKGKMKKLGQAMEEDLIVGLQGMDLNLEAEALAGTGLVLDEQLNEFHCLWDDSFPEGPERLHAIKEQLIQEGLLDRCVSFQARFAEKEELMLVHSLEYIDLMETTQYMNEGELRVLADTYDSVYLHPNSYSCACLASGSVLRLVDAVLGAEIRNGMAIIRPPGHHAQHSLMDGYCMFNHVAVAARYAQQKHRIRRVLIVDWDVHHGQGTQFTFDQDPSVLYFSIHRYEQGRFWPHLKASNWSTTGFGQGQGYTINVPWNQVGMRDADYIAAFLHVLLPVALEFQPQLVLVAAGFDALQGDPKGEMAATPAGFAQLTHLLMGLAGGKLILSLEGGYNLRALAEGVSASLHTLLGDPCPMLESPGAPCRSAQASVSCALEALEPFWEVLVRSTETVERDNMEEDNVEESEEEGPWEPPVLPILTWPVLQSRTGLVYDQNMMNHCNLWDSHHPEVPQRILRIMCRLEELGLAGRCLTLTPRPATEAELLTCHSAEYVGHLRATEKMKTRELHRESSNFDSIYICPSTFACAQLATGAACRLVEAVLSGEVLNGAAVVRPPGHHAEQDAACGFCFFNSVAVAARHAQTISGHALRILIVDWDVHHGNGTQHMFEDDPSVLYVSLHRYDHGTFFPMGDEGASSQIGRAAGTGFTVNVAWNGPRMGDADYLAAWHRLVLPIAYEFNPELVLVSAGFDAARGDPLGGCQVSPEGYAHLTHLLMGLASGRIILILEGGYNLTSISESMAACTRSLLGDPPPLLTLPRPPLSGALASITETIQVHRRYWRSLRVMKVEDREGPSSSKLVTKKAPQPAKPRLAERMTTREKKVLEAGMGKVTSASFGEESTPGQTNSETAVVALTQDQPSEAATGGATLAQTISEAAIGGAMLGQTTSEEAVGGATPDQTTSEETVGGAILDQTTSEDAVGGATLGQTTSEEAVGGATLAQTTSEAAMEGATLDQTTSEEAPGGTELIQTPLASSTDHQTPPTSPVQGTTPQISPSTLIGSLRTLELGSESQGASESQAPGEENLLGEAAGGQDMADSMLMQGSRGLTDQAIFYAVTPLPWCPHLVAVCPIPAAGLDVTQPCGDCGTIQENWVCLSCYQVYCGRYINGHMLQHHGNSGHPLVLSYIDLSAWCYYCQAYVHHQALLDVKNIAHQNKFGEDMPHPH
Test: Western blot of HDAC6 in MM1S cells
Format: cell-based
Details: for HDAC6 degradation activity of negative controls by western blot: data not shown
Method: FIGS. 10A and 10B are western blot analysis of MM1S cells treated with selected candidates from C4-lined series (FIG. 10A) and C5-lined series (FIG. 10B) for 6 h.
FIGS. 12A, 12B, and 12C are a series of western blots showing that degrader 12d selectively promotes HDAC6 degradation in MM1S cells.
FIGS. 13A and 13B are western blot analysis of MM1S cells with pre-treatment of E3 ligase ligand pomalidomide, HDAC6 inhibitor Next-A or NAE inhibitor MLN 4924 (FIG. 13A) or pre-treatment of proteasome inhibitor MG132 or Bortezomib (FIG. 13B) or vehicle (DMSO) for 1 h and it is followed by the treatment of 100 nM 2d or vehicle (DMSO) for 6 h.
FIG. 16 is a western blot of selected candidate compounds having longer linkers. MM1S cells were treated with 100 nM degraders for 6 hours and analyzed by western blot.
See FIG. 10A and FIG. 10B to confirm the ELISA results. Class II HDAC4 was selected for comparison. For selected compounds from C4- or C5-linked series, all of them presented maximal effects at 100 nM and degraded significant amount of HDAC6 at 10 nM. […] The results from Western blot are consistent with the screening results by ELISA.
To evaluate the activity and selectivity of 12d, a full dose response experiment was performed with compound concentrations ranging from 0.3 nM to 10 μM in MM1S cells (FIG. 12A) for several HDACs, IKZFs, and Ac-tubulin. […] Degrader 12d reduced HDAC6 protein content at as low as 3 nM and achieved maximal effects around 30 nM. […] See Douglass et al. 2013, supra. The degradation of IKZFs started from 30 nM and was dose-dependent. It is interesting to see the more efficient degradation of HDAC6, which requires the formation of ternary complex, than that of IKZFs, which only requires the formation of binary complex. In addition to the distinct mechanism, the different turnover rates of HDAC6 and IKZFs may also contribute to the observed results. The acetylated tubulin level was also dose-dependent. At higher concentrations (3 μM and 10 μM), tubulin acetylation was not […] in response to recovered HDAC6 expression by “hook effect”. The elevated tubulin acetylation at higher concentrations was likely due to the combination of HDAC6 degradation and HDAC6 inhibition.
To probe the efficiency of 12d, MM1S was treated with 100 nM 12d and the change of HDAC6 protein level was monitored by time. The HDAC6 degradation started around 1 h and reached maximal degradation effect at 4 h. The degradation of IKZFs was only observed after 4 h. Meanwhile, HDAC1 was not affected and the acetylation of tubulin was accumulated by time. To study the re-synthesis rate of HDAC6 after degradation, “wash-out” experiments were performed (data not shown). Cells were treated with 100 nM 12d for 6 h and then washed with PBS to remove remaining degraders. HDAC6 expression was monitored for 48 h. […] Selected degraders were also tested in other cell lines and they are effective among all tested cancer cell lines.
To support the involvement of ubiquitination-proteasome system for the decrease of HDAC6 protein level, the degrader was co-treated with binding competitors or pathway blockers. […] Moreover, it also confirmed the role of the pomalidomide moiety in modulating IKZFs. […] Additionally, proteasome inhibitor MG132 and Bortezomib were used to block the down-stream proteasome degradation. […] Acetylated tubulin level was suppressed as well. This confirms that HDAC6 degradation is responsible for the acetylation of its substrates rather than inhibition by the “warhead” moiety. To exclude the possible transcriptional impact by degraders, qRT-PCR was used to examine the mRNA level of HDAC6 and related genes (data not shown). […] This is consistent with the hypothesis that the cellular knockdown of HDAC6 is due to direct protein degradation, not by transcriptional downregulation. […]

[1] = 1 h pre-treatment, then 100 nM degrader 6 h, MM1S
[2] = 12d dose response 0.3 nM to 10 μM, MM1S

O=C(CCCCCCC(=O)N/N=C/c1ccc(OCCOCCOCCn2cc(CNc3cccc4c3C(=O)N(C3CCC(=O)NC3=O)C4=O)nn2)cc1)NO (centres unmarked) [Compound 1]
HDAC6 degradation by western blot (10 nM, 6 h, MM1S): degraded much less HDAC6

CCCCN(Cc1ccc(C(=O)NO)cc1)C(=O)Nc1ccc(OCCCCCn2cc(CNc3cccc4c3C(=O)N(C3CCC(=O)N(C)C3=O)C4=O)nn2)cc1 (centres unmarked) [Compound 15, 4-((1-butyl-3-(4-((5-(4-(((2-(1-methyl-2,6-dioxopiperidin-3-yl)-1,3-dioxoisoindolin-4-yl)amino)methyl)-1H-1,2,3-triazol-1-yl)pentyl)oxy)phenyl)ureido)methyl)-N-hydroxybenzamide]
HDAC6 degradation activity of negative controls by western blot (MM1S): inactive

CCCCN(Cc1ccc(C(=O)NO)cc1)C(=O)Nc1ccc(OCCCCCn2cc(CNc3cccc4c3C(=O)N(C3CCC(=O)NC3=O)C4=O)nn2)cc1 (centres unmarked) [Compound 12d, 4-((1-butyl-3-(4-((5-(4-(((2-(2,6-dioxopiperidin-3-yl)-1,3-dioxoisoindolin-4-yl)amino)methyl)-1H-1,2,3-triazol-1-yl)pentyl)oxy)phenyl)ureido)methyl)-N-hydroxybenzamide]
HDAC6 recovery after wash-out (100 nM for 6 h, washed with PBS, monitored within 48 h): not fully recovered
time at which HDAC6 degradation started (100 nM, MM1S): around 1 h
time of maximal HDAC6 degradation effect (100 nM, MM1S): 4 h
HDAC6 level on co-treatment with pomalidomide or Next-A [1]: recovered HDAC6 level
degradation on co-treatment with NAE inhibitor MLN4924 [1]: abolishing the degradation of both HDAC6 and IKZFs
degradation on co-treatment with proteasome inhibitor MG132 or Bortezomib [1]: no degradation of HDAC6
concentration at which hook effect was observed [2]: ≥ 3 µM
concentration of maximal effects on HDAC6 [2]: around 30 nM
lowest concentration reducing HDAC6 protein content [2]: 3 nM

CCCCN(Cc1ccc(C(=O)OC)cc1)C(=O)Nc1ccc(OCCCCCn2cc(CNc3cccc4c3C(=O)N(C3CCC(=O)NC3=O)C4=O)nn2)cc1 (centres unmarked) [Compound 13, Methyl 4-((1-butyl-3-(4-((5-(4-(((2-(2,6-dioxopiperidin-3-yl)-1,3-dioxoisoindolin-4-yl)amino)methyl)-1H-1,2,3-triazol-1-yl)pentyl)oxy)phenyl)ureido)methyl)benzoate]
HDAC6 degradation activity of negative controls by western blot (MM1S): inactive; also recorded: limited HDAC6 degradation

CCCCN(Cc1ccc(C(=O)NO)cc1)C(=O)Nc1ccc(OCCCCCn2cc(CNc3cccc4c3C(=O)N(C3CCC(=O)NC3=O)C4=O)nn2)cc1 (centres unmarked) [Compound 2]
time at which reduction of HDAC6 expression started (time-course, MM1S): 30 min
time of maximal HDAC6 degradation (time-course, MM1S): around 4 h
